For series [1] the following is noted: B0 = 1.0T; cited from earlier work.
Series [2] can be described thus: magnetizing relaxation rate via NMR (R1, R2). It counts as physicochemical. To be noted: B0 = 0.47 T, vertical relative relaxation.

With `CNC[C@H](O)[C@@H](O)[C@H](O)[C@H](O)CO.CNC[C@H](O)[C@@H](O)[C@H](O)[C@H](O)CO.O=C([O-])CN(CCN(CC(=O)[O-])CC(=O)O)CCN(CC(=O)[O-])CC(=O)O.[Gd+3]` [Magnevist ™], the “R1 (Literature)” value in series [1] is “R1 = 3.4”. Besides, the “R1(20 MHz)” value in series [2] is recorded as 6.14.

The record behind these values is US20100204508A1, “DENDRITIC COMPOUND AND USE THEREOF” (Industrial Technology Research Institute, priority 2004, published 2010).
